# Results from US7838674B2, “Tetracyclic lactame derivatives” (Novartis AG, priority 2007, dated 2010).
# Where a name gives a salt, the structure may show the parent alone.
# Target: human MK2 (Homo sapiens, UniProt P49137)
# Test: MAPKAPK2 kinase assay (TR-FRET, Hsp27 peptide substrate)
# Details: not given
# Sequence of human MK2 (P49137 whole entry): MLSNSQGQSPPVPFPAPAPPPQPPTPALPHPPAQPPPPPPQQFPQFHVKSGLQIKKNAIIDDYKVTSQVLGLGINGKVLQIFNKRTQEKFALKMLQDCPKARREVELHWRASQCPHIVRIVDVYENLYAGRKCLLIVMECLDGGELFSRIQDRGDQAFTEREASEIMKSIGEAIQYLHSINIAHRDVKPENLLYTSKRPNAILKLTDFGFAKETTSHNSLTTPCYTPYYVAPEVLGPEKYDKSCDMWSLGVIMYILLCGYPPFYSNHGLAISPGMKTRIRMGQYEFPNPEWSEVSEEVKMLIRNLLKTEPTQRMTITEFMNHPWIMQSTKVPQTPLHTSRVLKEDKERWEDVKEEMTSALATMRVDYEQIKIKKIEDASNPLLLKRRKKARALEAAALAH
row,Structure (SMILES),IC50
1,"COCCOc1cncc(-c2cc3c(cn2)CCc2c-3[nH]c3c2C(=O)NC2(CCC2)C3)c1 [Example 3, 2-(1-Amino-cyclobutylmethyl)-8-[5-(2-methoxy-ethoxy)-pyridin-3-yl]-4,5-dihydro-1H-pyrrolo[2,3-f]isoquinoline-3-carboxylic acid lactame]",63 nM
2,"O=C1NC2(CCC2)Cc2[nH]c3c(c21)CCc1cnc(-c2cncc(OC4CCOCC4)c2)cc1-3 [Example 109, 2-(1-Amino-cyclobutylmethyl)-8-[5-(tetrahydro-pyran-4-yloxy)-pyridin-3-yl]-4,5-dihydro-1H-pyrrolo[2,3-f]isoquinoline-3-carboxylic acid lactam]",42 nM
3,"COCCOc1cc(-c2cc3c(cn2)CCc2c-3[nH]c3c2C(=O)NCC32CC2)ccc1F [Example 310, 2-[4-Fluoro-3-(2-methoxy-ethoxy)-phenyl]-10-spirocyclopropyl-5,6,8,9,10,11-hexahydro-3,8,11-triaza-benzo[a]fluoren-7-one]",97 nM
4,"Cn1c2c(c3c1C1(CNC1)CNC3=O)CCc1cnc(-c3ccc(C(F)(F)F)nc3)cc1-2 [Example 169, 2-(3-Aminomethyl-azetidin-3-yl)-8-(6-trifluoromethyl-pyridin-3-yl)-1-methyl-4,5-dihydro-1H-pyrrolo[2,3-f]isoquinoline-3-carboxylic acid lactam hydrochloride]",93 nM
5,"O=C1NC2(CC2)Cc2[nH]c3c(c21)CCc1cnc(-c2cccnc2)cc1-3 [Example 93, 2-(1-Amino-cyclopropylmethyl)-8-pyridin-3-yl-4,5-dihydro-1H-pyrrolo[2,3-f]isoquinoline-3-carboxylic acid lactam]",51 nM

# Stronger by IC50, values ahead:
row,IC50,Structure (SMILES)
1,27 nM,"CN(C)CCOc1cc(-c2cc3c(cn2)CCc2c-3[nH]c3c2C(=O)NCC32CC2)ccc1F [Example 311, 2-[3-(2-Dimethylamino-ethoxy)-4-fluoro-phenyl]-10-spirocyclopropyl-5,6,8,9,10,11-hexahydro-3,8,11-triaza-benzo[a]fluoren-7-one]"
2,19 nM,COCc1ccc(CNC(=O)c2cccc(-c3cc4c(cn3)CCc3c-4[nH]c4c3C(=O)NC3(CC3)C4)c2)cc1 [Example 273]
3,15 nM,"N#Cc1cc(-c2cc3c(cn2)CCc2c-3[nH]c3c2C(=O)NCC32CC2)ccc1N1CCC(O)C1 (stereo not drawn) [Example 312, 2-(3-Hydroxy-pyrrolidin-1-yl)-10-spirocyclopropyl-5-(7-oxo-6,7,8,9,10,11-hexahydro-5H-3,8,11-triaza-benzo[a]fluoren-2-yl)-benzonitrile]"
4,12 nM,"N#Cc1cc(-c2cc3c(cn2)CCc2c-3[nH]c3c2C(=O)NCC32CC2)ccc1OCCN1CCOCC1 [Example 305, 2-(2-Morpholin-4-yl-ethoxy)-5-(7-oxo-10-spirocyclopropyl-6,7,8,9,10,11-hexahydro-5H-3,8,11-triaza-benzo[a]fluoren-2-yl)-benzonitrile]"
5,7 nM,"O=C1NCC2(CNC2)c2[nH]c3c(c21)CCc1cnc(-c2ccc(C(F)(F)F)nc2)cc1-3 [Example 166, 2-(3-Aminomethyl-azetidin-3-yl)-8-(6-trifluoromethyl-pyridin-3-yl)-4,5-dihydro-1H-pyrrolo[2,3-f]isoquinoline-3-carboxylic acid lactam hydrochloride]"

# Target: T1, MAPKAPK2 enzyme (HIS-MK2, Invitrogen PV4019) (Homo sapiens, UniProt P49137)
# T1 construct: His; purchased Invitrogen PV4019
# T1 sequence (P49137 whole entry): as above
# Test: Alternative MAPKAPK2 assay (Caliper microfluidic mobility shift, HSP27-peptide)
# Format: biochemical
# Details: HIS-MK2 0.013 nM, ATP 10 μM, 60 min at 30° C.
row,IC50,Structure (SMILES)
1,15 nM,"N#Cc1cc(-c2cc3c(cn2)CCc2c-3[nH]c3c2C(=O)NCC32CC2)ccc1N1CCC(O)C1 (stereo not drawn) [Example 312, 2-(3-Hydroxy-pyrrolidin-1-yl)-10-spirocyclopropyl-5-(7-oxo-6,7,8,9,10,11-hexahydro-5H-3,8,11-triaza-benzo[a]fluoren-2-yl)-benzonitrile]"
2,27 nM,"CN(C)CCOc1cc(-c2cc3c(cn2)CCc2c-3[nH]c3c2C(=O)NCC32CC2)ccc1F [Example 311, 2-[3-(2-Dimethylamino-ethoxy)-4-fluoro-phenyl]-10-spirocyclopropyl-5,6,8,9,10,11-hexahydro-3,8,11-triaza-benzo[a]fluoren-7-one]"
